Values after ≈ are worked out from the molar mass of the structure shown. A value given as a limit tells only on which side of the number the result lay.

The values below come from paper PMC11852049, “Impact of Hydrophobic, Hydrophilic, and Mucus-Binding Motifs on the Therapeutic Potential of Ceftazidime Analogs for Pulmonary Administration” (Antibiotics, 2025).

Data set [1] deals with Burkholderia pseudomallei. Description: microbe, parasite or virus in culture. It is filed as cell-based. As to conditions: for MIC: Burkholderia pseudomallei, 24 h, read-out: MIC Bp; for MIC Bp: 24 h at 37 °C, cation-adjusted Mueller–Hinton II broth, mean of two replicates.
For data set [2], the system named is Pseudomonas aeruginosa. Description: microbe, parasite or virus in culture. The following applies: for MIC: Pseudomonas aeruginosa, 24 h, read-out: MIC Pa. It is filed as cell-based.
For data set [3], the system named is Escherichia coli. The experiment in a line: microbe, parasite or virus in culture. It is filed as cell-based. As to conditions: 24 h, read-out: MIC Ec.
The subject of data set [4] is Staphylococcus aureus Newman. Description: microbe, parasite or virus in culture. It is filed as cell-based. As to conditions: for MIC: Staphylococcus aureus, NEWMAN, 24 h, read-out: MIC Sa.
On the set-up of data set [5]: method as in PMID 29096171, PMID 7629560. As to conditions: delivered via injection; cited from earlier work.
The nature of data set [6]: Transepithelial transport assay (Papp), HBEC air–liquid interface cultures on Transwells. The following applies: human, Papp (apparent permeability), mean ± standard deviation, apical to basal over 24 h, approx. 5 mg/mL apical.
Setting [7] is: compound set 2, three donors (L8 excluded).

`CC(C)(O/N=C(\C(=O)N[C@@H]1C(=O)N2C(C(=O)[O-])=C(C[n+]3ccccc3)CS[C@H]12)c1csc(N)n1)C(=O)O` [Ceftazidime pentahydrate, ceftazidime pentahydrate, reference compound]: the MIC in data set [1] turned out to be 3 µg/mL; in data set [2], 6 µg/mL; in data set [3], 0.4 µg/mL; in data set [4], 13 µg/mL. In addition, in data set [5], the “penetration ratio (PELF-to-total plasma concentration)” value is given as 20–30%. The Papp at 24 h in data set [6] (compound set 1, three donors) was 3.36 ± 0.18 ×10⁻⁶ cm/s; in data set [6] (setting [7]), 2.54 ×10⁻⁶ cm/s.

Turning to `CCCCNC(=O)C(C)(C)O/N=C(/C(=O)N[C@@H]1C(=O)N2C(C(=O)[O-])=C(C[n+]3ccccc3)CS[C@H]12)c1csc(N)n1` [Compound 1, n-butyl-ceftazidime], the MIC came out at 200 µg/mL (≈ 332 µM) in data set [1], 200 µg/mL (≈ 332 µM) in data set [2], 100 µg/mL (≈ 166 µM) in data set [3] and 6 µg/mL (≈ 9.97 µM) in data set [4]. Further, in data set [6] (compound set 1, three donors), the apparent permeability coefficient (Papp) at 24 h was found to be 1.91 ± 0.45 ×10⁻⁶ cm/s.

Regarding `CC(C)(O/N=C(/C(=O)N[C@@H]1C(=O)N2C(C(=O)[O-])=C(C[n+]3ccccc3)CS[C@H]12)c1csc(N)n1)C(=O)NCCc1ccccc1` [Compound 3], the MIC in data set [1] amounted to 200 µg/mL (≈ 308 µM); in data set [2], 200 µg/mL (≈ 308 µM); in data set [3] it was 100 µg/mL (≈ 154 µM); in data set [4], 3 µg/mL (≈ 4.62 µM). Besides, in data set [6] (setting [7]), the Papp at 24 h is 4.65 ± 0.86 ×10⁻⁶ cm/s.

For `CC(C)(O/N=C(/C(=O)N[C@@H]1C(=O)N2C(C(=O)[O-])=C(C[n+]3ccccc3)CS[C@H]12)c1csc(N)n1)C(=O)NCCc1cc(O)c(O)cc1Cl` [Compound 4], the “MIC Bp” value in data set [1] was less than 60 µg/mL. Also, the MIC is 1.6 µg/mL (≈ 2.23 µM) in data set [1], 19 µg/mL (≈ 26.5 µM) in data set [2], less than 15 µg/mL in data set [3] and 38 µg/mL (≈ 53.1 µM) in data set [4]. In data set [2], this compound had an MIC Pa of less than 60 µg/mL. Further, the Papp at 24 h in data set [6] (setting [7]) stood at 2.94 ± 0.63 ×10⁻⁶ cm/s.

In the case of `CC(C)(O/N=C(/C(=O)N[C@@H]1C(=O)N2C(C(=O)[O-])=C(C[n+]3ccccc3)CS[C@H]12)c1csc(N)n1)C(=O)NCCCS(=O)(=O)c1ccccc1` [Compound 5], the MIC in data set [1] was 150 µg/mL (≈ 206 µM); in data set [2], 200 µg/mL (≈ 275 µM); in data set [3], less than 15 µg/mL; in data set [4], 13 µg/mL (≈ 17.9 µM). Besides, in data set [6] (setting [7]), the Papp at 24 h was found to be 2.71 ± 0.93 ×10⁻⁶ cm/s.

In the case of `CC(C)(O/N=C(/C(=O)N[C@@H]1C(=O)N2C(C(=O)[O-])=C(C[n+]3ccccc3)CS[C@H]12)c1csc(N)n1)C(=O)NCCCCCCOCCCCc1ccccc1` [Compound 6], the MIC in data set [1] was more than 200 µg/mL; in data set [2], 200 µg/mL (≈ 257 µM); in data set [3], 100 µg/mL (≈ 129 µM); in data set [4], 3 µg/mL (≈ 3.86 µM). For the same compound, the apparent permeability (Papp) at 24 h in data set [6] (setting [7]) stood at 2.45 ± 0.21 ×10⁻⁶ cm/s.

For the compound `COCCOCCOCCNC(=O)C(C)(C)O/N=C(/C(=O)N[C@@H]1C(=O)N2C(C(=O)[O-])=C(C[n+]3ccccc3)CS[C@H]12)c1csc(N)n1` [Compound 7], the MIC was more than 200 µg/mL in data set [1], more than 200 µg/mL in data set [2], 100 µg/mL (≈ 145 µM) in data set [3] and 50 µg/mL (≈ 72.3 µM) in data set [4]. Also, the Papp at 24 h in data set [6] (setting [7]) stood at 3.6 ± 1.1 ×10⁻⁶ cm/s.

On to `COCCOCCOCCOCCOCCNC(=O)C(C)(C)O/N=C(/C(=O)N[C@@H]1C(=O)N2C(C(=O)[O-])=C(C[n+]3ccccc3)CS[C@H]12)c1csc(N)n1` [Compound 8], for which, in data set [1], the “MIC Bp” value is not below 100 µg/mL and the MIC was more than 200 µg/mL. In data set [2], the MIC Pa was not below 100 µg/mL and the MIC is more than 200 µg/mL. For the same compound, the MIC in data set [3] was not below 100 µg/mL. In data set [4], the MIC Sa was not below 100 µg/mL and the MIC amounted to 100 µg/mL (≈ 128 µM). Besides, in data set [6] (compound set 1, three donors), the Papp at 24 h is 2.23 ± 0.22 ×10⁻⁶ cm/s.

For the compound `COCCOCCOCCOCCOCCOCCOCCOCCNC(=O)C(C)(C)O/N=C(/C(=O)N[C@@H]1C(=O)N2C(C(=O)[O-])=C(C[n+]3ccccc3)CS[C@H]12)c1csc(N)n1` [Compound 9], in data set [1], the “MIC Bp” value is not below 100 µg/mL and the MIC was more than 200 µg/mL. Further, in data set [2], the MIC Pa was not below 100 µg/mL and the MIC is more than 200 µg/mL. Further, the MIC in data set [3] was not below 100 µg/mL. In data set [4], the MIC Sa is not below 100 µg/mL and the MIC stood at 200 µg/mL (≈ 219 µM). Also, the Papp at 24 h in data set [6] (compound set 1, three donors) was 1.86 ± 0.39 ×10⁻⁶ cm/s.

Turning to `CC(C)(O/N=C(/C(=O)N[C@@H]1C(=O)N2C(C(=O)[O-])=C(C[n+]3ccccc3)CS[C@H]12)c1csc(N)n1)C(=O)NC1C(O)O[C@H](CO)[C@@H](O)[C@@H]1O` (some centres unmarked) [Compound 10], the “MIC Bp” value in data set [1] was less than 60 µg/mL. Further, the MIC is 38 µg/mL (≈ 53.7 µM) in data set [1], 50 µg/mL (≈ 70.6 µM) in data set [2], less than 4 µg/mL in data set [3] and 150 µg/mL (≈ 212 µM) in data set [4]. In data set [2], this compound registered an MIC Pa of less than 60 µg/mL. Besides, in data set [6] (setting [7]), the Papp at 24 h turned out to be 2.75 ± 0.68 ×10⁻⁶ cm/s.

As to `CCN(CC)CCNC(=O)C(C)(C)O/N=C(/C(=O)N[C@@H]1C(=O)N2C(C(=O)[O-])=C(C[n+]3ccccc3)CS[C@H]12)c1csc(N)n1` [Compound 11], the MIC in data set [1] stood at 75 µg/mL (≈ 116 µM); in data set [2], 150 µg/mL (≈ 233 µM); in data set [3], 63 µg/mL (≈ 97.7 µM); in data set [4], 25 µg/mL (≈ 38.8 µM). The same compound yielded an MIC Sa in data set [4] of less than 40 µg/mL. For the same compound, the Papp at 24 h in data set [6] (compound set 1, three donors) came out at 3.58 ± 0.5 ×10⁻⁶ cm/s.

`CN1CCN(CCNC(=O)C(C)(C)O/N=C(/C(=O)N[C@@H]2C(=O)N3C(C(=O)[O-])=C(C[n+]4ccccc4)CS[C@H]23)c2csc(N)n2)CC1` [Compound 12]: the “MIC Bp” value in data set [1] is not below 100 µg/mL. For the same compound, the MIC in data set [1] was more than 200 µg/mL; in data set [2], more than 200 µg/mL; in data set [3], not below 100 µg/mL; in data set [4] it was more than 200 µg/mL. For the same compound, in data set [2], the MIC Pa is not below 100 µg/mL. Also, in data set [4], the MIC Sa was not below 100 µg/mL. In addition, in data set [6] (setting [7]), the Papp at 24 h is 2.6 ± 0.94 ×10⁻⁶ cm/s.

Take `CC(C)(O/N=C(/C(=O)N[C@@H]1C(=O)N2C(C(=O)[O-])=C(C[n+]3ccccc3)CS[C@H]12)c1csc(N)n1)C(=O)NC(CCC(=O)O)C(=O)O` (some centres unmarked) [Compound 13]: the MIC in data set [1] is 200 µg/mL (≈ 296 µM); in data set [2] it was 200 µg/mL (≈ 296 µM); in data set [3] it was less than 15 µg/mL; in data set [4], 200 µg/mL (≈ 296 µM). The Papp at 24 h in data set [6] (setting [7]) was 2.79 ± 0.91 ×10⁻⁶ cm/s.

In the case of `CC(C)(O/N=C(/C(=O)N[C@@H]1C(=O)N2C(C(=O)[O-])=C(C[n+]3ccccc3)CS[C@H]12)c1csc(N)n1)C(=O)NCCNc1ccnc(N)n1` [Compound 14], the “MIC Bp” value in data set [1] was not below 100 µg/mL. For the same compound, the MIC is more than 200 µg/mL in data set [1], 100 µg/mL (≈ 147 µM) in data set [2], not below 100 µg/mL in data set [3] and more than 200 µg/mL in data set [4]. The compound further gave an MIC Pa in data set [2] not below 100 µg/mL. In data set [4], this compound gave an MIC Sa not below 100 µg/mL. For the same compound, the Papp at 24 h in data set [6] (setting [7]) came out at 2.03 ± 0.6 ×10⁻⁶ cm/s.

With `CC(C)(O/N=C(/C(=O)N[C@@H]1C(=O)N2C(C(=O)[O-])=C(C[n+]3ccccc3)CS[C@H]12)c1csc(N)n1)C(=O)NCCOCCOCCOCCOCCOCCNc1ccnc(N)n1` [Compound 15, PEG5-pyrimidin-2-amine-ceftazidime], the MIC in data set [1] was 200 µg/mL (≈ 222 µM); in data set [2], more than 200 µg/mL; in data set [3] it was 38 µg/mL (≈ 42.1 µM); in data set [4], 50 µg/mL (≈ 55.4 µM). In data set [6] (compound set 1, three donors), the Papp at 24 h is 1.75 ± 0.06 ×10⁻⁶ cm/s.

Consider `CC(C)(O/N=C(/C(=O)N[C@@H]1C(=O)N2C(C(=O)[O-])=C(C[n+]3ccccc3)CS[C@H]12)c1csc(N)n1)C(=O)NCCCSc1ccc(B(O)O)cc1` [Compound 16, 4-propylthiophenyl boronic acid-ceftazidime], for which the MIC is 200 µg/mL (≈ 270 µM) in data set [1], more than 200 µg/mL in data set [2], 50 µg/mL (≈ 67.6 µM) in data set [3] and 3 µg/mL (≈ 4.06 µM) in data set [4]. For the same compound, the Papp at 24 h in data set [6] (setting [7]) is 4.9 ± 1.4 ×10⁻⁶ cm/s.

On to `CC(C)(O/N=C(/C(=O)N[C@@H]1C(=O)N2C(C(=O)[O-])=C(C[n+]3ccccc3)CS[C@H]12)c1csc(N)n1)C(=O)NCCCS(=O)(=O)c1ccc(B(O)O)cc1` [Compound 17], for which the MIC in data set [1] was 200 µg/mL (≈ 259 µM); in data set [2], 200 µg/mL (≈ 259 µM); in data set [3], 50 µg/mL (≈ 64.8 µM); in data set [4], 13 µg/mL (≈ 16.8 µM). Besides, the apparent permeability coefficient (Papp) at 24 h in data set [6] (setting [7]) was found to be 3.33 ± 0.36 ×10⁻⁶ cm/s.

On to `CC(C)(O/N=C(/C(=O)N[C@@H]1C(=O)N2C(C(=O)[O-])=C(C[n+]3ccccc3)CS[C@H]12)c1csc(N)n1)C(=O)NCCNC(=O)c1ccc(B(O)O)cc1` [Compound 18], for which, in data set [1], the “MIC Bp” value is less than 60 µg/mL and the MIC worked out at 50 µg/mL (≈ 67.9 µM). Moreover, in data set [2], the MIC Pa is less than 60 µg/mL and the MIC stood at 50 µg/mL (≈ 67.9 µM). Also, in data set [4], the MIC worked out at 25 µg/mL (≈ 33.9 µM). Further, the Papp at 24 h in data set [6] (setting [7]) was determined as 2.21 ± 0.45 ×10⁻⁶ cm/s.
